The assay deals with 5-hydroxytryptamine receptor 2A (Homo sapiens, UniProt P28223). Kind of assay: Displacement of [3H]ketanserin from human 5HT2A receptor. A general note: Displacement assays read how much labelled ligand stays bound in the presence of the test substance.

Structures are written as SMILES.

5-hydroxytryptamine receptor 2A, sequence (P28223 whole entry): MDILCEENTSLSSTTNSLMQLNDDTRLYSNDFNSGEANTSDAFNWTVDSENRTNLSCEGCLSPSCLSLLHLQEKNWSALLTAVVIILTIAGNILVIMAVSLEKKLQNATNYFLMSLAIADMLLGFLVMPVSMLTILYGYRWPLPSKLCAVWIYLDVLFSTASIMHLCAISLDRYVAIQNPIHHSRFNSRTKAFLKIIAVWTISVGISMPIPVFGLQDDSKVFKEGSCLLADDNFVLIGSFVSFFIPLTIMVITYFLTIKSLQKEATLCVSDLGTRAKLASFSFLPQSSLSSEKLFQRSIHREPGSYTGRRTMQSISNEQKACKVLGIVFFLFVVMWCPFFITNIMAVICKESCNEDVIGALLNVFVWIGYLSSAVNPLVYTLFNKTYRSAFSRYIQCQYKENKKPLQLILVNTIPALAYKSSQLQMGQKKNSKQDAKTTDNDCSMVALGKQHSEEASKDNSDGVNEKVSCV

Broadly, the Ki is the equilibrium dissociation constant of an inhibitor or competing ligand from its target. High values mean weaker binding, low ones tighter binding. `COc1ccc2c(c1)C(CN)c1ccccc1C2` (centres undefined) returned an inhibitory constant (Ki) of 1370 nM. Under `COc1cccc2c1Cc1ccccc1C2CN` (centres undefined) stands 124 nM; under `COc1ccc2c(c1)Cc1ccccc1C2CN` (centres undefined), 7.5 nM; under `COc1cccc2c1C(CN)c1ccccc1C2` (centres undefined), 1160 nM.

(Values after ChEMBL document CHEMBL1141706 (Bioorg Med Chem Lett, 2008).)
